For experiment [1], the system named is I. scapularis nymphs. In words: Tick bioassay, treated 2-dram vials, probit analysis. Particulars: for LC90 / Slope: 24 h exposure; for LC90: NE = not effective at concentrations tested; for Slope: probit. Format: in vivo, Ixodes scapularis. An excerpt:
A control treated with acetone only was run with each series.
For each time point, if ticks and fleas were incapable of movement, maintaining normal posture, leg coordination, ability to right themselves, or any signs of life, they were considered moribund or dead.

Experiment [2] concerns Ixodes scapularis nymphs. Put plainly: Residual activity, aged treated vials, ticks. Format: in vivo. Particulars: for LC90, residual activity: NE = not effective. How it is done: (§1) Briefly, groups of 10 nymphal I. scapularis and X. cheopis fleas were used in all tests (more than a total of 5,240 nymphs and 4,860 fleas were exposed to the compounds). The inner surface of 2-dram friction cap vials were treated with the compound/acetone solution, or acetone only as a control, and left to air-dry overnight (see also, Panella et al., J. Med. Entomol., 42(3):352-358, 2005. Three to 4 holes were made in the plastic cap to allow for air exchange. Nymphal ticks and adult fleas were then placed directly into the vials using forceps. Vials containing ticks or fleas were placed in desiccators for 24 h at 21° C. and 90% RH. Morbidity and mortality was recorded at 1, 2, 4, 8, and 24 h after initial exposure.

Experiment [3] relates to Ae. aegypti adults. In words: Adult mosquito bottle bioassay. Format: in vivo, Aedes aegypti. Particulars: for Slope: probit. How it is done:
(§2) Adult mosquitoes were tested using the bottle bioassay method of Brogden and McAllister (J. Am. Mosq. Control Assoc., 14:159–64, 1998) with minor modifications. Natural product extracts were two-fold serially diluted for a total of 8 concentrations ranging from 0.002% to 0.25% in 1.5 ml of acetone. Individual dilutions were added to 250 ml Wheaton glass bottles and capped. Bottles were manipulated to evenly coat all inner surfaces. The caps were removed and bottles were allowed to air-dry overnight. Once bottles were completely dry, 10–50 (in some tests 25–50) adult mosquitoes were aspirated into the bottles. Mosquitoes were held in the bottles for 24 h at 23° C. and 85% RH. Morbidity and mortality were recorded at 15, 30, 45, and 60 min and 24 hour intervals. One bottle for each replicate was treated with acetone only and served as a control. The dose-mortality data was evaluated with probit analysis, using the LdP Line software, to determine LC50 and LC90 values.
Carvacrol was combined with compound 7, 9, or 10 at a 1:1 ratio (7.5 μl of carvacrol:7.5 μl of compound 7, 9, or 10 was added to 2,985 μl of acetone for a 0.5% solution, from which serial dilutions were made), and tested as previously described against nymphal ticks and adult and larval mosquitoes.

Experiment [4] relates to Ixodes scapularis nymphal ticks. In words: Tick repellency bioassay. Format: in vivo. An excerpt: One-hundred (100) μl of test compound was pipetted onto a cotton-tipped applicator mounted to the bottom center of a 1 dram glass shell vial using non-toxic modeling clay. A total of 8 concentrations were screened with doses ranging from 0.04–5.0%. Applicators treated with acetone only served as controls. A line was drawn around the perimeter of the vial immediate to the base of the treated cotton portion of the applicator. The area above the line was designated the “repellent zone”. The vial was allowed to air-dry 1 h before a single tick was introduced. Vials were covered with a single piece of mesh and fitted with a hollowed-out plastic cap to cover the opening of the vial; this prevented the tick from escaping but allowed for air exchange. Vials were breathed upon by investigators at 1 min intervals and a hand was placed over the test vials to provide stimuli for ticks to pass into the repellent zone. […] If the tick crossed over and remained in the “repellent zone” for ≧5 sec, the tick was deemed non-repelled by the test compound. Each test was replicated 10 times using a new tick for each test. Repellent activity was determined at 1, 2, 3, and 4 h after treatment. Probit analysis was used to determine repellent efficacy (RD50 and RD95).

For experiment [5], the system named is X. cheopis adults. In words: Flea bioassay, treated 2-dram vials, probit analysis. Format: in vivo, Xenopsylla cheopis. Particulars: 24 h exposure; for Slope: probit. On the procedure: Med. […] A control treated with acetone only was run with each series. Tick and flea susceptibility was evaluated using a modification of the disposable pipette method of Barnard et al. (J. Econ. Entomol., 74:466-69, 1981) and Maupin and […]. Med. […] The inner surface of 2-dram friction cap vials were treated with the compound/acetone solution, or acetone only as a control, and left to air-dry overnight (see also, […] et al., J. Med. […] Three to 4 holes were made in the plastic cap to allow for air exchange. Nymphal ticks and adult fleas were then placed directly into the vials using forceps. […] For each time point, if ticks and fleas were incapable of movement, maintaining normal posture, leg coordination, ability to right themselves, or any signs of life, they were considered moribund or dead.

Experiment [6] deals with fourth-instar Aedes aegypti larvae. Put plainly: Larval mosquito bioassay. Format: in vivo. Particulars: Aedes aegypti larval mosquitoes, concentration of the 1 ml added to 150 ml water. On the procedure: Individual groups of 10 fourth-instar Aedes aegypti larvae were contained in 150 ml of water and exposed to […] of essential oils prepared by 2-fold serial dilutions ranging from 0.06%–5.0% in 1 ml of acetone. A control group of larvae were exposed to 1 ml of acetone only.
It is important to note that larval mosquitoes are tested in their natural environment, i.e., in water. The particular assays used herein involved groups of 10 larval mosquitoes in 150 ml of water. The weight percentages reported for lethal concentration for larval mosquitoes are the weight percentages added to the 150 ml water (as opposed to the final percentage of the tested compound(s) in the 150 ml water). As one of skill in the art will appreciate, test compound(s) added to a volume of water (such as, 150 ml) can be dramatically diluted depending upon the water solubility of the tested compound. […] If the tested compound is an oil (such as, carvacrol, nootkatone, or 13-hydroxy-valencene), it most likely floats on the surface of the water.

Experiment [7] relates to ticks, fleas, and mosquitoes. In words: Residual activity, general statements (Examples 9, 17). Format: in vivo.
The subject of experiment [8] is Xenopsylla cheopis adults. Put plainly: Residual activity, aged treated vials, fleas. Format: in vivo. How it is done:
as §1

In experiment [9] the test system is Aedes aegypti adults. Put plainly: Residual activity, aged treated bottles, mosquitoes. Format: in vivo. On the procedure:
as §2

Setting [10] is: Ixodes scapularis nymphal ticks, alone, or 1:1 with carvacrol (in parenthesis).
Setting [11] is: Ixodes scapularis nymphal ticks, alone, or 1:1 with carvacrol (in parenthesis), listed as carvacrol.
Where [12] appears, read: 24 h exposure, NE = not effective at concentrations tested.
[13] abbreviates: Aedes aegypti adult mosquitoes, alone, or 1:1 with carvacrol (in parenthesis).
[14] abbreviates: 1 h after compound applied to applicator.
The mark [15] stands for this setting: 4 h after compound applied to applicator.
[16] abbreviates: 2 weeks after treatment, NE = not effective.

Molecules are shown by their SMILES. In brackets after ≈: the same amount, converted by molar mass. Like-named read-outs stand apart in the source and are kept apart here. Marks after values point to notes of the source that are not given here.

Regarding `Cc1ccc(C(C)C)cc1O` [Compound 4, Carvacrol], in [1], the LC90 is 0.014 percent concentration, wt:vol. Moreover, the Slope in experiment [1] turned out to be 3.906; in experiment [3] (24 h exposure), 2.908; in experiment [5], 3.413. In addition, the “LC50 (1 h)” value is listed as 0.019^b % (wt:vol) in experiment [1] (setting [10]), 0.019 % (wt:vol) in [1] (setting [11]), 3.853^b % (wt:vol) in [6] and 3.853 % (wt:vol) in [6] (listed as carvacrol). Further, the “LC50 (24 h)” value in experiment [1] (setting [10]) is on record as 0.0068 % (wt:vol); in experiment [1] (setting [11]) it was “about 0.0068 % (wt:vol)”; in experiment [3] (setting [13]), 0.0051 % (wt:vol); in experiment [6], 0.988 % (wt:vol); in experiment [6] (listed as carvacrol), 1.411 % (wt:vol). Also, the results for the “LC90 (1 hr)” value in experiment [1] (setting [10]) and in experiment [6] were 0.071 % (wt:vol) and 10.478 % (wt:vol), respectively. In addition, the “LC90 (24 h)” value in experiment [1] (setting [10]) was 0.014 % (wt:vol); in [3] (setting [13]) it was 0.014 % (wt:vol); in experiment [6], 1.411 % (wt:vol). Moreover, the residual activity result in experiment [2] (nymphal I. scapularis) is listed as “lacks any residual activity beyond about 1 week”; in experiment [7] it was “little-to-no activity beyond 24 h”. Moreover, in experiment [3] (setting [12]), the LC50 (as a rule, the concentration that kills 50% of the test population) was 0.0051 percent concentration, wt:vol. The “LC50 (15 min)” value in experiment [3] (setting [13]) was 0.0057^b % (wt:vol); in experiment [3] (Aedes aegypti adult mosquitoes, alone, or 1:1 with carvacrol (in parenthesis), listed as carvacrol), 0.0057 % (wt:vol). In experiment [3] (setting [13]), the “LC90 (15 min)” value is on record as 0.017 % (wt:vol). Moreover, the “Slope (±SEM)” value in experiment [4] (1 h) is listed as 1.506 (±0.355); in experiment [4] (4 h), 2.907 (±0.755). The RD50 is listed as 0.088 % (wt:vol) in experiment [4] (setting [14]) and 0.077 % (wt:vol) in experiment [4] (setting [15]). Also, the RD95 in experiment [4] (setting [14]) was 1.09 % (wt:vol); in experiment [4] (setting [15]), 0.283 % (wt:vol). For the same molecule, the “more effective than Deet” value in [4] (at 1 h) was 1.9 fold; in experiment [4] (at 4 h), 46 fold.

Turning to `C=C(C)[C@@H]1CCC2=CC(=O)C[C@@H](C)[C@]2(C)C1` [Compound 8, Nootkatone], the LC90 in experiment [1] is on record as 0.015 percent concentration, wt:vol; in [3] (setting [12]), 0.0087 percent concentration, wt:vol; in [5] (NE = not effective at concentrations tested), 0.008 percent concentration, wt:vol. Further, the Slope in experiment [1] was 3.211; in experiment [3] (24 h exposure), 4.635; in experiment [5] it was 2.949. The “Slope, residual activity” value in experiment [8] (1 week after treatment) was determined as 3.107; in experiment [8] (2 weeks after treatment), 1.931; in experiment [8] (4 weeks after treatment), 1.95; in experiment [2] (1 week after treatment) it was 2.871; in [2] (2 weeks after treatment), 2.727; in experiment [2] (4 weeks after treatment) it was 2.871. The “Slope, residual activity” value in experiment [9] (1 week after treatment) came to 3.858; in experiment [9] (2 weeks after treatment) it was 4.953; in [9] (4 weeks after treatment) it was 7.772. Also, the “LC90, residual activity” value is on record as 0.053 percent concentration, wt:vol in [8] (1 week after treatment, NE = not effective); 0.081 percent concentration, wt:vol in experiment [8] (2 weeks after treatment); 0.056 percent concentration, wt:vol in experiment [2] (2 weeks after treatment); 0.012 percent concentration, wt:vol in experiment [9] (setting [16]). In addition, the LC50 in [3] (Aedes aegypti, 24 h exposure, NE = not effective at concentrations tested, read-out: LC50) came out at 46 µg/mL (≈ 211 µM). Also, the residual activity result in experiment [7] (ticks) is listed as “considerable biological activity through the four week time period”.

Consider `C=C(C=O)C1CCC2=CCC[C@@H](C)[C@]2(C)C1` (stereo partly drawn) [Compound 15, valencene-13-aldehyde], for which the Slope is reported as 2.755 in [1], 8.714 in experiment [3] (24 h exposure) and 5.366 in experiment [5]. Further, the “Slope, residual activity” value stood at 3.211 in experiment [8] (1 week after treatment), 2.859 in [2] (1 week after treatment), 3.392 in experiment [9] (1 week after treatment) and 3.136 in [9] (2 weeks after treatment). In addition, the “LC90, residual activity” value in experiment [2] (1 week after treatment) is reported as 0.072 percent concentration, wt:vol; in experiment [9] (1 week after treatment), 0.027 percent concentration, wt:vol; in experiment [9] (setting [16]), 0.037 percent concentration, wt:vol. Further, the residual activity result in experiment [7] (ticks) is recorded as “considerable biological activity through the four week time period”.

In the case of `C=C(C)C1CCC23OC2C(=O)C[C@@H](C)[C@]3(C)C1` (stereo partly drawn) [Compound 17, nootkatone-1,10-epoxide], the Slope in experiment [1] is 2.883; in [3] (24 h exposure), 1.346; in experiment [5], 2.326. Besides, the RD50 in experiment [4] (1 hr, combinations 1:1 by weight) is 3×10^−1 % (w/v); in [4] (4 hr, combinations 1:1 by weight) it was 0.135 % (w/v).

Turning to `C[C@@H]1CC(=O)C2OC23CCC(C2(C)CO2)C[C@@]13C` (stereo partly drawn) [Compound 18, nootkatone-1,10–11,12-diepoxide], the Slope in experiment [1] is given as 2.131; in [3] (24 h exposure), 4.472; in experiment [5], 1.455.

On to `CCN(CC)C(=O)c1cccc(C)c1` [Deet, N, N-diethyl-m-toluamide, reference compound], for which the results for the “Slope (±SEM)” value in [4] (1 h) and in [4] (4 h) were 0.633 (±0.222) and 0.485 (±0.212), respectively. For the same molecule, the RD50 in [4] (setting [14]) is 0.167 % (wt:vol); in experiment [4] (setting [15]), 0.384 % (wt:vol). Also, the RD95 in experiment [4] (setting [14]) was 50.579 % (wt:vol); in [4] (setting [15]), 950.294 % (wt:vol).

Source of the values: patent US7230033B2, “Pest control compositions and methods for their use” (United States of America as represented by the Secretary of …, priority 2000, dated 2007).
